Source: PubChem BioAssay (NCI)
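Five concentrations, 48 hours, 96-well plates. GI50: concentration for 50% inhibition of growth. TGI marks complete inhibition of growth.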

How the values were obtained:
Experiment in all cases: NCI anticancer screen, dose series, 48 h
[1] = system: CAKI-1 renal
[2] = system: M14 melanoma
[3] = system: SF-539 CNS
[4] = system: NCI-H460 lung
[5] = system: RPMI-8226 leukemia
[6] = system: SF-295 CNS
[7] = system: 786-0 renal
[8] = system: HOP-92 NSCLC
[9] = system: LOX IMVI melanoma
[10] = system: RXF 393 renal
[11] = system: COLO 205 colon
[12] = system: SN12C renal
[13] = system: SR leukemia
[14] = system: DU-145 prostate
[15] = system: KM12 colon
[16] = system: HCC-2998 colon
[17] = system: UACC-257 melanoma
[18] = system: TK-10 renal
[19] = system: SF-268 CNS
[20] = system: OVCAR-4 ovarian
[21] = system: T-47D breast
[22] = system: NCI-H23 lung
[23] = system: HL-60(TB) leukemia
[24] = system: HCT-15 colon
[25] = system: HS 578T breast
[26] = system: OVCAR-8 ovarian
[27] = system: K-562 leukemia
[28] = system: EKVX NSCLC
[29] = system: UO-31 renal
[30] = system: A498 renal
[31] = system: SW-620 colon
[32] = system: MOLT-4 leukemia
[33] = system: SK-OV-3 ovarian
[34] = system: SK-MEL-2 melanoma
[35] = system: HOP-62 NSCLC
[36] = system: NCI-H226 lung
[37] = system: UACC-62 melanoma
[38] = system: CCRF-CEM leukemia
[39] = system: SK-MEL-28 melanoma
[40] = system: SNB-19 CNS
[41] = system: BT-549 breast
[42] = system: MDA-MB-468 breast
[43] = system: U251 CNS
[44] = system: NCI-H522 lung
[45] = system: MDA-MB-435
[46] = system: IGROV1 ovarian
[47] = system: HT29 colon
[48] = system: SK-MEL-5 melanoma
[49] = system: MCF7 breast
[50] = system: PC-3 prostate
[51] = system: A549 NSCLC
[52] = system: OVCAR-3 ovarian
[53] = system: OVCAR-5 ovarian
[54] = system: HCT-116 colon
[55] = system: MDA-MB-231 breast
[56] = system: ACHN renal
[57] = system: MALME-3M melanoma
[58] = system: SNB-75 CNS

Work on `O=C(c1ccc(Cl)cc1)C1[C@H](c2ccc(Br)cc2)[C@@H](c2ccccc2)NC12C(=O)Nc1ccc(Br)cc12` (stereo partly specified) yielded a GI50 [1] of 1.71 µM, a TGI [1] of 6.79 µM and a GI50 [2] of 1.89 µM. The TGI [2] was 7.61 µM, the GI50 [3] was 4.67 µM and the TGI [3] was 10.8 µM. It also gave a GI50 [4] of 1.07 µM, a TGI [4] of 2.54 µM and a GI50 [5] of 1.45 µM. For the same compound, the TGI [5] was 4.86 µM, the GI50 [6] was 2.13 µM and the TGI [6] was 8.48 µM. It also gave a GI50 [7] of 1.34 µM, a TGI [7] of 4.15 µM and a GI50 [8] of 1.38 µM. It also gave a TGI [8] of 4.1 µM, a GI50 [9] of 0.927 µM and a TGI [9] of 1.99 µM. For the same compound, the GI50 [10] was 1.18 µM, the TGI [10] was 3.25 µM and the GI50 [11] was 0.946 µM. It also gave a TGI [11] of 2.08 µM, a GI50 [12] of 1.04 µM and a TGI [12] of 2.43 µM. For the same compound, the GI50 [13] was 1.03 µM, the TGI [13] was 2.99 µM and the GI50 [14] was 2.81 µM. It also gave a TGI [14] of 9.37 µM, a GI50 [15] of 1.82 µM and a TGI [15] of 7.45 µM. The GI50 [16] was 1.62 µM, the TGI [16] was 4.99 µM and the GI50 [17] was 3.29 µM. For the same compound, the TGI [17] was 9.91 µM, the GI50 [18] was 3.07 µM and the TGI [18] was 10 µM. The GI50 [19] was 1.88 µM, the TGI [19] was 9.16 µM and the GI50 [20] was 2.23 µM. For the same compound, the TGI [20] was 9.06 µM, the GI50 [21] was 1.74 µM and the TGI [21] was 7.41 µM. For the same compound, the GI50 [22] was 1.72 µM, the TGI [22] was 6.78 µM and the GI50 [23] was 1.45 µM. For the same compound, the TGI [23] was 6.79 µM, the GI50 [24] was 1.6 µM and the TGI [24] was 6.07 µM. The GI50 [25] was 4.15 µM, the TGI [25] was 18.2 µM and the GI50 [26] was 1.93 µM. For the same compound, the TGI [26] was 6.97 µM, the GI50 [27] was 1.65 µM and the TGI [27] was 6.45 µM. The GI50 [28] was 1.94 µM, the TGI [28] was 8.07 µM and the GI50 [29] was 1.53 µM. For the same compound, the TGI [29] was 6.36 µM, the GI50 [30] was 5.34 µM and the TGI [30] was 11.6 µM. The GI50 [31] was 2.24 µM, the TGI [31] was 8.37 µM and the GI50 [32] was 1.39 µM. It also gave a TGI [32] of 5.05 µM, a GI50 [33] of 5.49 µM and a TGI [33] of 13.1 µM. The GI50 [34] was 5.3 µM, the TGI [34] was 11.5 µM and the GI50 [35] was 5.17 µM. The TGI [35] was 11.5 µM, the GI50 [36] was 1.81 µM and the TGI [36] was 7.96 µM. For the same compound, the GI50 [37] was 2.94 µM, the TGI [37] was 9.44 µM and the GI50 [38] was 1.49 µM. It also gave a TGI [38] of 4.98 µM, a GI50 [39] of 4.78 µM and a TGI [39] of 10.7 µM. For the same compound, the GI50 [40] was 3.95 µM, the TGI [40] was 10.9 µM and the GI50 [41] was 2.47 µM. The TGI [41] was 8.33 µM, the GI50 [42] was 1.55 µM and the TGI [42] was 7.73 µM. It also gave a GI50 [43] of 1.53 µM, a TGI [43] of 6.07 µM and a GI50 [44] of 1.42 µM. The TGI [44] was 6.69 µM, the GI50 [45] was 2.79 µM and the TGI [45] was 9.4 µM. For the same compound, the GI50 [46] was 2.46 µM, the TGI [46] was 8.43 µM and the GI50 [47] was 1.19 µM. The TGI [47] was 3.09 µM, the GI50 [48] was 6.2 µM and the TGI [48] was 12.6 µM. It also gave a GI50 [49] of 1.48 µM, a TGI [49] of 5.24 µM and a GI50 [50] of 1.65 µM. For the same compound, the TGI [50] was 6.18 µM, the GI50 [51] was 1.6 µM and the TGI [51] was 6.03 µM. For the same compound, the GI50 [52] was 2.42 µM, the TGI [52] was 8.6 µM and the GI50 [53] was 3.55 µM. For the same compound, the TGI [53] was 9.88 µM, the GI50 [54] was 1.09 µM and the TGI [54] was 2.35 µM. The GI50 [55] was 1.4 µM, the TGI [55] was 4.37 µM and the GI50 [56] was 1.52 µM. For the same compound, the TGI [56] was 5.07 µM, the GI50 [57] was 4.86 µM and the TGI [57] was 10.7 µM. It also gave a GI50 [58] of 1.55 µM and a TGI [58] of 8.89 µM.
